From patent US12304909B2, “Compounds and their use in therapy” (IMPERIAL COLLEGE INNOVATIONS LIMITED, priority 2018, dated 2025)

Tested on: MDA MB 231 cells
Test: In vivo study in mice, MDA MB 231 tumour growth
Set-up: species or system Athymic Nude female mice
Conditions: 25 mg/kg twice a day by oral gavage, 10 days
Description: The effect of Example 1 on tumor growth rate in mice was also investigated.
5×10^6 MDA MB 231 cells (obtained from Professor Eric Aboagye, Hammersmith Hospital; cell type: triple negative breast cancer) were resuspended in PBS, and 50 μl of cells/PBS was mixed with 50 μl of Matrigel to provide a total volume of 100 μL containing 50% Matrigel. The suspension was injected into the right flank in 16 Athymic Nude female mice. Mice were five to six weeks old and obtained from Charles Rivers Laboratories. All of the experiments were carried out under London Home Office license authority and London Home Office Ethics Committee guidelines. When the tumour mass reached 50 mm3, the animals were randomized (8 per group) and treated for 10 days with PBS solution (control group) or 25 mg/kg of Example 1 suspended in PBS twice a day by oral gavage. Tumor growth rates were analyzed by caliper measurements every day after the start of the treatment period with Example 1 (“NMTi”) or the control (“PBS”). Tumor volume was calculated according to the formula: […]. Weight of the mice was also measured every day after the start of the treatment period with Example 1 (“NMTi”) or the control (“PBS”). Mice were euthanised when the tumor size exceeded 15 mm in diameter in any direction.

weight change in the mice: No weight change
Structure (SMILES): Cc1c(CCOc2cc(Cl)ccc2-c2ccc3ncc(CCN)n3c2)c(C(=O)N(C)C)nn1C [Example Compound 1, 4-(2-{2-[3-(2-aminoethyl)imidazo[1,2-a]pyridin-6-yl]-5-chlorophenoxy}ethyl)-N,N,1,5-tetramethyl-1H-pyrazole-3-carboxamide]
tumour growth rate (vs PBS control): reduced
